Where two headings read alike, the source gives them in different places.
Biological target: T1, BRM (Homo sapiens, UniProt P51531)
T1 construct: In-Cell Western Screen of BRM Degradation in SW1573 Cells; endogenous in cells; host or cells: SW1573
Test: In-cell Western screen of BRM degradation in SW1573 cells (Dmax and DC50)
Type: cell-based
In short: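 Overnight compound treatment (18-20 h, final DMSO 0.1%) of SW1573 cells in DMEM with 10% FBS precedes fixation and in-cell Western staining with 800/680 nm dye-labelled secondaries. Plate images give DC50 and maximal degradation.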

[1] = BRM degradation, SW1573 cells, read-out: DC50
[2] = BRM degradation, SW1573 cells, when tested at the top concentration of between 0.3 and 10 μM, read-out: Dmax (%) (% degraded)
[3] = SW1573, % degraded, when tested at the top concentration of between 0.3 and 10 μM, read-out: BRM Dmax (%)
[4] = target protein degradation, read-out: BRM DC50
[5] = BRM degradation, SW1573 cells, Table 2D, read-out: **Dmax (%) (% degraded)
[6] = BRM degradation, SW1573 cells, Table 2D, read-out: *DC50

T1 sequence (P51531 whole entry): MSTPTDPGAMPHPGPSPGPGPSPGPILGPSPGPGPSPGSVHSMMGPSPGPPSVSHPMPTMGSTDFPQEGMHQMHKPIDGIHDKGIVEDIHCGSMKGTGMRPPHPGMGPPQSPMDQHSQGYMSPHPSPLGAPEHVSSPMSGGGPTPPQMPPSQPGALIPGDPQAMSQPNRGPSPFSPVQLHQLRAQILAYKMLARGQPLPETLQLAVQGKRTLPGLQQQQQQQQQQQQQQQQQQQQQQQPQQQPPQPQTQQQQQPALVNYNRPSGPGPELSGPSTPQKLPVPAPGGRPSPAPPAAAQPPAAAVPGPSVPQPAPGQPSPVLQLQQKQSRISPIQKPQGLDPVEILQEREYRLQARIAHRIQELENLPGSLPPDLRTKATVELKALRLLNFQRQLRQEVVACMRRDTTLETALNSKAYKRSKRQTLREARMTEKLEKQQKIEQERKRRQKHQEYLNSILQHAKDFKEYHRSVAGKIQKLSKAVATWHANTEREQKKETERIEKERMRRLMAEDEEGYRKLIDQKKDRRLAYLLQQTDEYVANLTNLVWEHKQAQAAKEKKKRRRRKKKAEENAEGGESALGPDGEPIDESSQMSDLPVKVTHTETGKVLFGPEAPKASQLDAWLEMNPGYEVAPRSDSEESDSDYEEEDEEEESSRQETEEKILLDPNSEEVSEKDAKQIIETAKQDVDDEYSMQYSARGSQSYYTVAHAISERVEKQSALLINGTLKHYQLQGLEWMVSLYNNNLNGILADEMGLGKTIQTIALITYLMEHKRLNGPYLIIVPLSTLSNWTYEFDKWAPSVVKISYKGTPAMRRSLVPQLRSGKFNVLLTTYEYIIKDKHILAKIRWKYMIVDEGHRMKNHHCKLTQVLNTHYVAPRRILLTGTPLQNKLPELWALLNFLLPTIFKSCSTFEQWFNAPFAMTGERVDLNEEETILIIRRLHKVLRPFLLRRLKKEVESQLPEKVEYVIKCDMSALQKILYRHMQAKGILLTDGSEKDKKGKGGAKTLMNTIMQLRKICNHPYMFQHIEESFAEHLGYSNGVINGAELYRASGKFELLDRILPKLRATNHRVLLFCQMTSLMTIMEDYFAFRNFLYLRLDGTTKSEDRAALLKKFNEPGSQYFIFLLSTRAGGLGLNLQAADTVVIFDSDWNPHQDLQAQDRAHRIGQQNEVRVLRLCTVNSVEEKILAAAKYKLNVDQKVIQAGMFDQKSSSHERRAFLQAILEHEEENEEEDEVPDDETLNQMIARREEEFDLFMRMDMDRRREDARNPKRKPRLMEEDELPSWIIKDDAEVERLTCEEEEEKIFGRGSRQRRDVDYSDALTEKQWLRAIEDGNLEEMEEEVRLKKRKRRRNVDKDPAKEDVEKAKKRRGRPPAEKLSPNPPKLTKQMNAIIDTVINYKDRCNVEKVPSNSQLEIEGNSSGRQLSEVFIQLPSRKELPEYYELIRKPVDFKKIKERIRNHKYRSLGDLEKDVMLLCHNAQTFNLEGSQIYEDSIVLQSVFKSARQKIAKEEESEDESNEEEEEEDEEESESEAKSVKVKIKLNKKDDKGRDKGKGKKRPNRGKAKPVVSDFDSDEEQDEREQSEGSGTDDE

In the case of `Cc1ncsc1-c1ccc([C@H](C)NC(=O)[C@@H]2C[C@@H](O)CN2C(=O)[C@@H](c2cc(CCCN3CCN(CCOc4cc(N5C6CCC5CN(c5cc(-c7ccccc7O)nnc5N)C6)ccn4)CC3)no2)C(C)C)cc1` [compound 134, (2S,4R)-1-((2R)-2-(3-(3-(4-(2-((4-(3-(3-amino-6-(2-hydroxyphenyl)pyridazin-4-yl)-3,8-diazabicyclo[3.2.1]octan-8-yl)pyridin-2-yl)oxy)ethyl)piperazin-1-yl)propyl)isoxazol-5-yl)-3-methylbutanoyl)-4-hydroxy-N-((S)-1-(4-(4-methylthiazol-5-yl)phenyl)ethyl)pyrrolidine-2-carboxamide], the DC50 [1] is reported as < 2.5 nM and the Dmax [2] is reported as > 75%.

`Cc1nccn1-c1ccc([C@H](C)NC(=O)[C@@H]2C[C@@H](O)CN2C(=O)[C@H](c2cc(OCC#Cc3ncc(O[C@H]4C[C@H](Oc5cc(N6C7CCC6CN(c6cc(-c8ccccc8O)nnc6N)C7)ccn5)C4)cn3)no2)C(C)C)cc1` [compound 393, (2S,4R)-1-((2S)-2-(3-((3-(5-((1r,3S)-3-((4-(3-(3-amino-6-(2-hydroxyphenyl)pyridazin-4-yl)-3,8-diazabicyclo[3.2.1]octan-8-yl)pyridin-2-yl)oxy)cyclobutoxy)pyrimidin-2-yl)prop-2-yn-1-yl)oxy)isoxazol-5-yl)-3-methylbutanoyl)-4-hydroxy-N-((S)-1-(4-(2-methyl-1H-imidazol-1-yl)phenyl)ethyl)pyrrolidine-2-carboxamide] was tested, and the Dmax [3] was > 75% and the DC50 [4] was > 30 nM.

For `Cc1ncsc1-c1ccc([C@H](C)NC(=O)[C@@H]2C[C@@H](O)CN2C(=O)[C@@H](c2cc(OCC(F)(F)CN3CCC(O[C@H]4C[C@H](Oc5cc(N6C7CCC6CN(c6cc(-c8ccccc8O)nnc6N)C7)ccn5)C4)CC3)no2)C(C)C)cc1` [compound 484, (2S,4R)-1-((2R)-2-(3-(3-(4-((1r,3R)-3-((4-(3-(3-amino-6-(2-hydroxyphenyl)pyridazin-4-yl)-3,8-diazabicyclo[3.2.1]octan-8-yl)pyridin-2-yl)oxy)cyclobutoxy)piperidin-1-yl)-2,2-difluoropropoxy)isoxazol-5-yl)-3-methylbutanoyl)-4-hydroxy-N-((S)-1-(4-(4-methylthiazol-5-yl)phenyl)ethyl)pyrrolidine-2-carboxamide], the Dmax [3] was > 75% and the DC50 [4] was < 2.5 nM.

`Cc1ncsc1-c1ccc([C@H](C)NC(=O)[C@@H]2C[C@@H](O)CN2C(=O)[C@@H](c2cc(N3CCC(OC4CCN(CC5CC(CN6CCC([C@H](C)n7cc(-c8cc(-c9ccccc9O)nnc8N)cn7)CC6)C5)CC4)CC3)no2)C(C)C)cc1` (single isomer, unassigned) [compound 594] was tested, and the Dmax [5] was > 75% and the DC50 [6] was < 2.5 nM.

With `Cc1ncsc1-c1ccc([C@H](COCC(C)C)NC(=O)[C@@H]2C[C@@H](O)CN2C(=O)[C@@H](c2cc(OCCN3CCN(CCOc4cc(N5C6CCC5CN(c5cc(-c7ccccc7O)nnc5N)C6)ccn4)CC3)no2)C(C)C)cc1` [compound 129, (2S,4R)-1-((2R)-2-(3-(2-(4-(2-((4-(3-(3-amino-6-(2-hydroxyphenyl)pyridazin-4-yl)-3,8-diazabicyclo[3.2.1]octan-8-yl)pyridin-2-yl)oxy)ethyl)piperazin-1-yl)ethoxy)isoxazol-5-yl)-3-methylbutanoyl)-4-hydroxy-N-((R)-2-isobutoxy-1-(4-(4-methylthiazol-5-yl)phenyl)ethyl)pyrrolidine-2-carboxamide] the DC50 [1] was > 30 nM.

In the case of `Cc1ncsc1-c1ccc(CNC(=O)[C@@H]2C[C@@H](O)CN2C(=O)[C@@H](c2cc(OCCN3CCC(O[C@H]4C[C@H](Oc5cc(N6C7CCC6CN(c6cc(-c8ccccc8O)nnc6N)C7)ccn5)C4)CC3)no2)C(C)C)c(C#N)c1` [compound 225, (2S,4R)-1-((2R)-2-(3-(2-(4-((1r,3R)-3-((4-(3-(3-amino-6-(2-hydroxyphenyl)pyridazin-4-yl)-3,8-diazabicyclo[3.2.1]octan-8-yl)pyridin-2-yl)oxy)cyclobutoxy)piperidin-1-yl)ethoxy)isoxazol-5-yl)-3-methylbutanoyl)-N-(2-cyano-4-(4-methylthiazol-5-yl)benzyl)-4-hydroxypyrrolidine-2-carboxamide], the DC50 [1] is reported as < 2.5 nM and the Dmax (BRM degradation, SW1573 cells, tested at the top concentration of between 0.3 and 10 μM, read-out: Dmax (%) (% degraded)) is reported as > 75%.

For `Cc1ncsc1-c1ccc([C@H](C)NC(=O)[C@@H]2C[C@@H](O)CN2C(=O)[C@@H](c2cc(OCC[C@@H]3CCN(C[C@H]4C[C@H](Oc5cc(N6C7CCC6CN(c6cc(-c8ccccc8O)nnc6N)C7)ccn5)C4)[C@H](C)[C@@H]3C)no2)C(C)C)cc1` (single isomer, unassigned) [compound 584], the Dmax [5] was > 75% and the DC50 [6] was < 2.5 nM.

With `Cc1ncsc1-c1ccc(CNC(=O)[C@@H]2C[C@@H](O)CN2C(=O)[C@H](c2cc(OCCOCCOCCOc3cc(N4C5CCC4CN(c4cc(-c6ccccc6O)nnc4N)C5)ccn3)no2)C(C)C)cc1` [compound 27, (2S,4R)-1-[(2S)-2-[3-[2-(2-[2-[(4-[3-[3-amino-6-(2-hydroxyphenyl)pyridazin-4-yl]-3,8-diazabicyclo[3.2.1]octan-8-yl]pyridin-2-yl)oxy]ethoxy]ethoxy)ethoxy]-1,2-oxazol-5-yl]-3-methylbutanoyl]-4-hydroxy-N-[[4-(4-methyl-1,3-thiazol-5-yl)phenyl]methyl]pyrrolidine-2-carboxamide] the DC50 [1] was > 30 nM and the Dmax [2] was > 75%.

`Cc1ncsc1-c1ccc([C@H](C)NC(=O)[C@@H]2C[C@@H](O)CN2C(=O)[C@@H](c2cc(N3CCC(CN4CCC(O[C@H]5C[C@H](Oc6cc(N7C8CCC7CN(c7cc(-c9ccccc9O)nnc7N)C8)ccn6)C5)CC4)CC3)no2)C(C)C)cc1F` [compound 652, (2S,4R)-1-((2R)-2-(3-(4-((4-((1r,3r)-3-((4-(3-(3-amino-6-(2-hydroxyphenyl)pyridazin-4-yl)-3,8-diazabicyclo[3.2.1]octan-8-yl)pyridin-2-yl)oxy)cyclobutoxy)piperidin-1-yl)methyl)piperidin-1-yl)isoxazol-5-yl)-3-methylbutanoyl)-N-((S)-1-(3-fluoro-4-(4-methylthiazol-5-yl)phenyl)ethyl)-4-hydroxypyrrolidine-2-carboxamide] was tested, and the DC50 [1] was < 2.5 nM and the Dmax (BRM degradation, SW1573 cells, read-out: Dmax (% degraded)) was > 75%.

`Cc1ncsc1-c1ccc([C@H](C)NC(=O)[C@@H]2C[C@@H](O)CN2C(=O)[C@H](c2cc(OCCN3CCC(OC4CN(c5cc(N6C7CCC6CN(c6cc(-c8ccccc8O)nnc6N)C7)ccn5)C4)CC3)no2)C(C)C)cc1` [compound 354, (2S,4R)-1-((2S)-2-(3-(2-(4-((1-(4-(3-(3-amino-6-(2-hydroxyphenyl)pyridazin-4-yl)-3,8-diazabicyclo[3.2.1]octan-8-yl)pyridin-2-yl)azetidin-3-yl)oxy)piperidin-1-yl)ethoxy)isoxazol-5-yl)-3-methylbutanoyl)-4-hydroxy-N-((S)-1-(4-(4-methylthiazol-5-yl)phenyl)ethyl)pyrrolidine-2-carboxamide] was tested, and the Dmax [3] was > 75% and the DC50 [4] was 2.5 to 10 nM.

`CC(C)[C@H](C(=O)N1C[C@H](O)C[C@H]1C(=O)N[C@@H](C)c1ccc(-c2scnc2CO)cc1)c1cc(OCCN2CCC(O[C@H]3C[C@H](Oc4cc(N5C6CCC5CN(c5cc(-c7ccccc7O)nnc5N)C6)ccn4)C3)CC2)no1` [compound 219, (2S,4R)-1-((2S)-2-(3-(2-(4-((1r,3S)-3-((4-(3-(3-amino-6-(2-hydroxyphenyl)pyridazin-4-yl)-3,8-diazabicyclo[3.2.1]octan-8-yl)pyridin-2-yl)oxy)cyclobutoxy)piperidin-1-yl)ethoxy)isoxazol-5-yl)-3-methylbutanoyl)-4-hydroxy-N-((S)-1-(4-(4-(hydroxymethyl)thiazol-5-yl)phenyl)ethyl)pyrrolidine-2-carboxamide] was tested, and the DC50 [1] was > 30 nM.

With `Cc1ncsc1-c1ccc([C@H](C)NC(=O)[C@@H]2C[C@@H](O)CN2C(=O)[C@H](c2cc(OCCOCCOCCCCN3CCC4(CCN(c5cc(-c6ccccc6O)nnc5N)CC4)C3)no2)C(C)C)cc1` [compound 73, (2S,4R)-1-((S)-2-(3-(2-(2-(4-(8-(3-amino-6-(2-hydroxyphenyl)pyridazin-4-yl)-2,8-diazaspiro[4.5]decan-2-yl)butoxy)ethoxy)ethoxy)isoxazol-5-yl)-3-methylbutanoyl)-4-hydroxy-N-((S)-1-(4-(4-methylthiazol-5-yl)phenyl)ethyl)pyrrolidine-2-carboxamide] the DC50 [1] was > 30 nM.

`Cc1ncsc1-c1ccc([C@H](C)NC(=O)[C@@H]2C[C@@H](O)CN2C(=O)[C@H](c2cc(N3CCC(CN4CCC(O[C@H]5C[C@H](Oc6cc(N7C8CCC7CN(c7cc(-c9ccccc9O)nnc7N)C8)ccn6)C5)CC4)CC3)no2)C(C)C)cc1O` [compound 700, (2S,4R)-1-((2S)-2-(3-(4-((4-((1r,3r)-3-((4-(3-(3-amino-6-(2-hydroxyphenyl)pyridazin-4-yl)-3,8-diazabicyclo[3.2.1]octan-8-yl)pyridin-2-yl)oxy)cyclobutoxy)piperidin-1-yl)methyl)piperidin-1-yl)isoxazol-5-yl)-3-methylbutanoyl)-4-hydroxy-N-((S)-1-(3-hydroxy-4-(4-methylthiazol-5-yl)phenyl)ethyl)pyrrolidine-2-carboxamide] was tested, and the DC50 [1] was > 30 nM.

In the case of `Cc1ncsc1-c1ccc([C@H](C)NC(=O)[C@@H]2C[C@@H](O)CN2C(=O)[C@@H](c2cc(OC3CN(CCN4CCC(O[C@H]5C[C@H](Oc6cc(N7C8CCC7CN(c7cc(-c9ccccc9O)nnc7N)C8)ccn6)C5)CC4)C3)no2)C(C)C)cc1` [compound 371, (2S,4R)-1-((2R)-2-(3-((1-(2-(4-((1r,3r)-3-((4-(3-(3-amino-6-(2-hydroxyphenyl)pyridazin-4-yl)-3,8-diazabicyclo[3.2.1]octan-8-yl)pyridin-2-yl)oxy)cyclobutoxy)piperidin-1-yl)ethyl)azetidin-3-yl)oxy)isoxazol-5-yl)-3-methylbutanoyl)-4-hydroxy-N-((S)-1-(4-(4-methylthiazol-5-yl)phenyl)ethyl)pyrrolidine-2-carboxamide], the Dmax [3] is reported as > 75% and the DC50 [4] is reported as < 2.5 nM.

— patent US12539292B2, “BRM targeting compounds and associated methods of use” (Arvinas Operations, Inc., priority 2018, dated 2026)
